{
  "source": "patent US20090074878A1",
  "about": "“Non-Toxic Water Soluble Inorganice Antimicrobal Polymer and Related Methods” (priority 2005, published 2009)",
  "tested_on": "E coli O157:H7",
  "test": "Effect of pH on Concrobium activity, lysis under light microscope (Example 5)",
  "format": "cell-based",
  "details": "one million CFU",
  "description": "One million CFU of E coli O157:H7 were incubated with the following and samples of each were observed under a light microscope:\n1. 1 mL of Concrobium, normal saline and 0.1 N (normal) sodium hydroxide 2. 1 mL of Concrobium and normal saline 3. 1 mL normal saline",
  "data": [
    {"smiles": "[Na+].[OH-]", "note": "[sodium hydroxide]", "values": [
      {"measurement": "lysing effect on E coli in suspension", "value": "lysed the E. coli in suspension"}
    ]}
  ]
}
